Activity calls are given as the source filed them. How the calls were made is not given here.
Molecular target: Ribonuclease H1 (Homo sapiens) (UniProt O60930)
Assay: inhibition of human ribonuclease H1 activity – biochemical, FRET RNA/DNA duplex cleavage, dose response (AID 366);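 further: potency is for inhibitors that lower RNA cleavage and so lower fluorescence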
Details: human RNase H1, FRET RNA/DNA duplex cleavage, fluorescence

Ribonuclease H1 (Homo sapiens), sequence (O60930 whole entry, looked up): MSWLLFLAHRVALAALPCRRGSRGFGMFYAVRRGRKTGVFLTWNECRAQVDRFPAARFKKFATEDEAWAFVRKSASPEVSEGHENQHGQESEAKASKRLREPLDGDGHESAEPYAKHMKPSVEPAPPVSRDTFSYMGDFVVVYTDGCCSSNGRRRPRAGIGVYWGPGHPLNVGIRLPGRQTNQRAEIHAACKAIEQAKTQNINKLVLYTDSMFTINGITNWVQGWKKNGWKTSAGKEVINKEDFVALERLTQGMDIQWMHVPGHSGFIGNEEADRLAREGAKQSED

Compound	IC50
Cc1cccc(NC(=O)c2c(NC(=O)c3ccc([N+](=O)[O-])cc3)sc3c2CCCC3)c1	580 nM
Cc1sc2nc(-c3ccc([N+](=O)[O-])cc3)[nH]c(=O)c2c1C	900 nM
N#C/C(=C\Nc1ccc(S(=O)(=O)Nc2nccs2)cc1)c1nc(-c2ccc(Cl)cc2)cs1	500 nM
NCC[Se][Se]CCN	5300 nM
Cc1cc(-c2ccc(C=C3C(=O)NC(=S)NC3=O)o2)c([N+](=O)[O-])cc1C	4000 nM
COc1ccc2oc(=O)c(-c3csc(Nc4ccc(Br)cc4)n3)cc2c1	900 nM
Ic1ccc2c(c1)N(c1ccccc1)c1cc(N=c3ccc4nc5ccc(I)cc5n(-c5ccccc5)c-4c3)ccc1N2	300 nM
COc1ccc(-c2c(C#N)c(N)nc(SCC(=O)c3ccc(O)c(O)c3)c2C#N)cc1	1100 nM
N#Cc1c(NC(=O)C(F)(F)F)sc2c3c(=O)c4ccccc4c(=O)c=3oc3ccccc3c12	inactive
O=C1c2ccccc2C(=O)N1c1ccc(-c2nc3ccc(N4C(=O)c5ccccc5C4=O)cc3[nH]2)cc1	540 nM
O=C1NC(=S)N(c2ccccc2F)C(=O)C1=Cc1ccco1	200 nM
COc1cc([C@@H]2c3cc4c(cc3C[C@H]3COC(=O)[C@@H]32)OCO4)cc(OC)c1O	1800 nM
O=C1/C(=C/c2ccc(O)c(O)c2)SC(=S)N1c1ccc(O)cc1	3500 nM
Nc1ccc(S(=O)(=O)O)c2cccc(O)c12	4500 nM
C=CC1=C(C)C2=NC1=CC1=NC(=CC3=C(C)C4=C(O)C(C(=O)OC)C(=C5NC(=C2)C(C)C5CCC(=O)OC/C=C(\C)CCCC(C)CCCC(C)CCCC(C)C)C4=N3)C(CC)=C1C (centres undefined)	> 100000 nM (inactive)
Nc1ccc(N=Nc2ccc(-c3ccc(O)cc3)cc2)c2ccc(S(=O)(=O)O)cc12	4800 nM
Cc1ccc(S(=O)(=O)/N=C2\C=C(Sc3ncn[nH]3)C(=O)c3ccccc32)cc1	9200 nM
CCCCCCCCCCCCCCCC(=O)OCC1OC(n2ccc(N)nc2=O)C(O)C1O (centres undefined)	600 nM
COc1ccccc1N=C(NOCc1ccc(Cl)cc1Cl)c1nonc1N	8800 nM
COc1cc(C=O)ccc1OCCCOc1cccc(Oc2ccccc2)c1	6000 nM
C=CCn1c(N)c(-c2nc3ccccc3[nH]2)sc1=S	inactive
O=C1O/C(=C(/C(=O)O)c2ccc(O)cc2)C(O)=C1c1cc2c3c(c(O)cc(C4=C(O)/C(=C(\C(=O)O)c5ccc(O)cc5)OC4=O)c3c1)OC2=O	600 nM
CC1=C(C)CC(C(=O)Nc2ccc(N3C(=O)c4ccccc4C3=O)cc2)C(C(=O)O)C1 (centres undefined)	inactive

Compound	IC50
COC(=O)c1cc2cc3cc4cc(CC(=O)O)c(C(=O)/C=C(\O)c5ccccc5O)c(OC)c4c(OC)c3c(O)c2c(=O)o1	1200 nM
O=[N+]([O-])c1cc(Cc2cc([N+](=O)[O-])c3cccnc3c2O)c(O)c2ncccc12	500 nM
CCOc1cccc(N2C(=O)/C(=C/c3cn(CC(=O)OC)c4ccccc34)C(=O)NC2=S)c1	920 nM
CCN1C(=O)/C(=C/c2ccoc2)C(=O)NC1=S	> 100000 nM (inactive)
CCCCCCCCCCCCCCCCCCOCC(O)CO (centres undefined)	> 100000 nM (inactive)
O=C1C(Cl)=C/C(=N\S(=O)(=O)c2ccccc2)C(Cl)=C1Cl	4100 nM
O=C1NC(=S)N(c2ccc(Cl)cc2)C(=O)/C1=C/c1ccc(Br)o1	600 nM
O=C1/C(=C\c2ccc(O)c(O)c2)SC(=S)N1c1cccc(Cl)c1	1600 nM
Oc1cc(O)c2cc(O)c(-c3ccc(O)c(O)c3)[o+]c2c1	100 nM
Cc1ccccc1-n1c(O)c(C=C2C=CC=N2)c(=O)[nH]c1=S	5000 nM
COc1ccc(N2C(=O)/C(=C\c3cn(CC(=O)Nc4ccccc4)c4ccccc34)C(=O)NC2=S)cc1	620 nM
Oc1cc(CN2COc3ccccc32)c(O)cc1CNC1CCCCC1	inactive
O=C(N/N=C/c1ccc(/C=N/NC(=O)c2ccc(O)c(O)c2)cc1)c1ccc(O)c(O)c1	40 nM
CC1C2C=CC1C(c1c3ccc(=O)c(O)c-3oc3c(O)c(O)ccc13)C2C(=O)O (centres undefined)	70 nM
O=C1/C(=C/c2ccc(O)c(O)c2)SC(=S)N1C1CCCCC1	1800 nM
COC(=O)c1cc2c3c(ccc2[nH]1)N(C(=O)c1cc2c4c(ccc2[nH]1)N(C(=O)c1cc2c5c(ccc2[nH]1)N(C(N)=O)CC5)CC4)CC3	800 nM
c1ccc(C(c2cccc3c2ccc2ccccc23)C(c2ccccc2)c2cccc3c2ccc2ccccc23)cc1 (centres undefined)	3600 nM
C[C@@H]1[C@H](O)c2c(c3c(c4c(-c5ccccc5)cc(=O)oc24)OC(C)(C)C=C3)O[C@@H]1C	4800 nM
Cc1cccc(NCC(=O)N/N=C\c2c(Br)cc(Br)c(O)c2Br)c1	inactive
O=C(CSc1nc2ccccc2s1)c1sc2sc3ccccc3[n+]2c1[O-]	300 nM
O=S(=O)(O)c1cc(N=[N+]([O-])c2cc(S(=O)(=O)O)c3ccccc3c2)cc2ccccc12	500 nM
Oc1ccc(/C=N/Nc2nncc(-c3ccccc3)n2)c(O)c1O	1100 nM
CC(C)c1cccc(O)c(=O)c1	> 100000 nM (inactive)

Compound	IC50
O=C(O)c1c(Br)c(Br)c(Br)c(Br)c1C1c2ccc(O)cc2Oc2cc(O)ccc21	900 nM
CCOc1ccc(N2C(=O)/C(=C/c3ccc(Br)o3)C(=O)NC2=S)cc1	700 nM
COc1ccc(NC(=O)c2c(N)sc(-c3ccccc3)c2C)cc1	2000 nM
C=C(C)[C@@H]1CCc2c(O)c(O)c(=O)cc(C)c2C1	3800 nM
COc1cccc2cc(C(N)=O)c(=O)oc12	inactive
O=C1C=C/C(=N\S(=O)(=O)c2cc(Cl)ccc2Cl)C=C1Cl	1600 nM
O=C1NC(=S)N(c2ccc(Cl)cc2)C(=O)/C1=C/c1ccco1	inactive
Cc1ccc(-c2cc(C(=O)Nc3sc(C(=O)OC(C)C)c(C)c3C(N)=O)c3ccccc3n2)s1	800 nM
Cc1sc(NC(=O)C2CC3CCC2C3)c(C(N)=O)c1C (centres undefined)	inactive
O=C1NC(=S)N(c2ccc(Cl)cc2)C(=O)/C1=C\C=C\c1ccccc1[N+](=O)[O-]	7000 nM
O=C1C(Cl)=CC(=NS(=O)(=O)c2ccccc2)C=C1Cl	4300 nM
O=C(Oc1ccccc1)Oc1c(Cl)cc2oc(=O)sc2c1Cl	3000 nM
Cc1cc(Cl)ccc1OCC(=O)Nc1sc(C)c(C)c1C(N)=O	4300 nM
C=C/C(C)=C/C[C@]1(C)[C@H](C)CC[C@@]23C(=C[C@H](OC(=O)c4ccc(O)c(OC)c4)C[C@@H]12)[C@@H](OC(C)=O)O[C@H]3OC(C)=O	4000 nM
Cc1ccc(-c2n[nH]c(=S)n2/N=C/c2ccc(O)c(O)c2O)cc1	inactive
Oc1ccc2ccccc2c1C=NCc1c(O)ccc2ccccc12	8000 nM
CCOc1ccc(C2=CC(=O)C=CC2=O)cc1	5700 nM
CCCc1cc(=O)oc2c3c(c4c(c12)OC(C)(C)C=C4)O[C@@H](C)[C@H](C)[C@@H]3F	6800 nM
CCCc1cc(=O)oc2c3c(c4c(c12)OC(C)(C)C=C4)O[C@H](C)[C@@H](C)[C@H]3OC	4900 nM
Cc1sc(NC(=O)C2CCCO2)c(C(N)=O)c1C (centres undefined)	inactive
O=S(=O)(Nc1cccc(C(F)(F)F)c1)c1ccc2ccccc2c1	inactive
CC(C)c1ccc(O)c(=O)cc1	inactive
CC(=O)O[C@H](C)[C@@H]1C2=C(C(=O)C[C@]1(C)O)C(=O)c1c(ccc(-c3ccc4c(c3O)C(=O)C3=C(C4=O)[C@@H]([C@@H](C)OC(C)=O)[C@@](C)(O)CC3=O)c1O)C2=O	6000 nM

Compound	IC50
COc1ccc(N2C(=O)/C(=C/c3ccc(I)o3)C(=O)NC2=S)cc1	1200 nM
Cc1ccc(C)n1-c1ccc(SCC(=O)O)cc1	1200 nM
O=C1C=CC(=O)C(c2cc(Cl)ccc2Cl)=C1	3000 nM
O=c1c(O)c(-c2ccc(O)c(O)c2)oc2cc(O)cc(O)c12	3000 nM
Cc1cc(C(=O)O)ccc1-n1c(C)ccc1C	inactive
O=C1NC(=S)N(c2ccccc2F)C(=O)/C1=C/c1ccc(OCc2cccc(C(=O)O)c2)cc1	9000 nM
FC(F)(F)c1nc2ccc(SSc3ccc4nc(C(F)(F)F)[nH]c4c3)cc2[nH]1	1700 nM
C=CC(C)(C)C12CC3C(=O)N/C(=C\c4cnc[nH]4)C(=O)N3C1Nc1ccccc12 (centres undefined)	inactive
O=c1[nH]c2[nH]c(=S)[nH]c(=S)c2[nH]1	9000 nM
O=c1[nH]c(=S)n(-c2ccccc2F)c(O)c1C=C1C=CC=N1	400 nM
CC(C)=CCC(O)C1=CC(=O)c2c(O)ccc(O)c2C1=O (centres undefined)	4200 nM
O=C(O)C1Nc2c(Cl)cc(Cl)cc2C2C=CCC12 (centres undefined)	8800 nM
C=C1C(=O)O[C@@H]2/C=C(\C)CC/C=C(\C(=O)O)CC/C=C(\C)CC[C@H]12	3100 nM
O=C(O)CCc1c2ccc(=O)c(O)c-2oc2c(O)c(O)ccc12	70 nM
O=C(Nc1ccc(N2CCN(C(=O)c3ccccc3)CC2)cc1)c1ccc(-c2ccccc2)cc1	350 nM
COc1ccc(-c2nc3sc(-c4ccc(OC)cc4)nc3s2)cc1	inactive
COc1cc(C)cc2c(-c3c(O)cc(O)c4c3C[C@@H](C)N[C@@H]4C)cc(-c3cc(-c4c(O)cc(O)c5c4C[C@@H](C)N[C@@H]5C)c4cc(C)cc(OC)c4c3O)c(O)c12	2000 nM
CCOc1ccc(NC(=O)c2c(NC(=O)c3ccco3)sc3c2CCCCC3)cc1	2100 nM
CCOc1ccc(N2C(=O)/C(=C/c3ccc(I)o3)C(=O)NC2=S)cc1	2000 nM
O=C1NC(=S)N(c2cccc(Cl)c2)C(=O)/C1=C\C=C\c1ccco1	6000 nM

— PubChem BioAssay AID366 (MTDP, 2006)
